Measurements as given in patent US10285382B2 (priority 2017, dated 2019).
Where “and” joins values, the source holds several entries; their conditions need not be identical. Identical values can stand only once. Like-named read-outs stand apart in the source and are kept apart here.

Key:
chicks = system: chicks
Text: The chicks hatched according to the methods of Examples 2 and 3 are shipped to a broiler facility and raised to maturity. No additional changes to grow-out methods are made. A total of about 4 million eggs are set per month and the saleable chicks are sent to the grow-out facility. […] The wholesale price of a broiler is currently estimated at $0.85 per pound. […] See the http:///.nationalchickencouncil.org available on the web.

Other blue green = system: Other blue green
Text: (§1) Hatcheries and chick production facilities are subject to heavy bacterial loads that are difficult to control. In addition to the animals themselves, there is a significant contamination of the facilities from the outside.

Total bacteria = system: Total bacteria
Text: as §1

Aspergillus fumigatus = system: Aspergillus fumigatus
Text: as §1

E. coli K12 = settings: for % Reduction vs. Control / Log10 reduction / Log10 reduction vs. Control / Percent reduction: DHP (+)
[1] = system: S. aureus ATCC 33592 (MRSA)
salmonellae = settings: egg cooler conditions; during the trial
bacteria growing on TSA = settings: for number of bacteria growing on TSA: test room, DHP about 0.1 ppm, FIGS. 13A-B
Influenza A (H1N1) = system: Influenza A (H1N1)
Method: Glass slides (1″×3″) are ethanol-sanitized and autoclaved prior to testing. The slides (carriers) are placed into sterile plastic petri dishes until use. Aliquots (0.010 ml) of diluted stock Influenza A (H1N1) are aseptically spread over a 1″×1″ square area of the carrier slide to prepare a virus film.
Virus Control carriers are placed into an adjacent modular room with the lids removed. One additional glass slide (with no virus film) is also placed into each testing chamber to perform cytotoxicity and neutralization validation controls. Upon closure of the respective study contact times (T=60 min and T=120 min), duplicate carriers are removed from each testing chamber. Duplicate carriers are also removed from the control modular room at each time point. Duplicate time zero carriers are harvested and enumerated promptly by eluting the films with 2 ml of Influenza Infection Medium. Serial dilutions (1:10) are performed and dilutions 10^−1 to 10^−5 are plated in quadruplicate onto Madin-Darby Canine Kidney (MDCK) cell monolayers prepared to suitable confluency. Cell culture assay trays are incubated at 35° C. on an orbital rotator (60 rotations/minute) for 60 minutes to facilitate viral-host adsorption. Trays are removed from incubation, and Influenza infection Media is pipetted into each well (˜1.0 ml). The trays are incubated for 7 days. The assay trays are observed regularly for the presence of cytotoxicity, viral cytopathic effects, and contamination. At the end of 7 days, plates are scored and the Spearman-Karber Method is used to compute viral titers and levels of cytotoxicity.

[2] = system: Gram-negative enteric bacilli; settings: egg cooler conditions
[3] = system: flies and other unwanted insects
Text: In addition to the incoming eggs, the egg room includes excess shipping boxes and pallets.

Salmonella = settings: hatchery environment (egg room and incubators); after 28 days
[4] = 6 Hours contact, Hood (Treated)
[5] = 6 Hours contact, Room (Treated)
[6] = 24 Hours contact, Hood (Treated)
[7] = 24 Hours contact, Room (Treated)
[8] = 48 Hours contact, Hood (Treated)
[9] = 48 Hours contact, Room (Treated)
[10] = Hood Chamber, 60 minutes contact
[11] = Hood Chamber, 120 minutes contact
[12] = Modular Room, 60 minutes contact, DHP 0.6 to 1.0 ppm
[13] = Modular Room, 120 minutes contact, DHP 0.6 to 1.0 ppm

What does the source list for `OO` [DHP, dry hydrogen peroxide]?
Mortality Rate (chicks; After DHP treatment, grow-out facility): 2.2%; Net increase (# Broilers) (chicks; After DHP treatment, per month): 308,678; reduction of mortality (chicks; at the grow-out facility): about 7.8%; increase in overall production (chicks; per month): over 300,000 broilers; Kill (Other blue green): 49983; Reduction (Other blue green): 99.89%; Post (Other blue green; hatchery after DHP): 56; reduction of bacterial loads in hatcheries (Total bacteria; DHP treatment): over 90%; Kill (Total bacteria; Total (sum of all categories)): 650019; Post (Total bacteria; Total (sum of all categories)): 50167; Kill (Total bacteria; Total bacteria): 550037; Reduction (Total bacteria; Total bacteria): 91.65%; Post (Total bacteria; Total bacteria, hatchery after DHP): 50110; Kill (Aspergillus fumigatus): 49999; Reduction (Aspergillus fumigatus): 99.99%; Post (Aspergillus fumigatus; hatchery after DHP): 1; Percent Saleable Chicks (hatching eggs; After DHP treatment): 80.82%; Saleable Chick (average) (hatching eggs; After DHP treatment, 4,000,000 eggs set per month): 3,318,400; Net increase (# Chicks) (hatching eggs; After DHP treatment, from each 4,000,000 eggs set): 62,000; After Modification Cull Rate (%) (hatching eggs; August 2016): 1.58%; After Modification First Quality Chick (% Hatched) (hatching eggs; August 2016): 79.90%; After Modification Cull Rate (%) (hatching eggs; Average June-November 2016): 1.65%; After Modification First Quality Chick (% Hatched) (hatching eggs; Average June-November 2016): 80.82%; cull rate lower than the cull rate before DHP modification (hatching eggs; DHP modified egg room): at least 1%; After Modification Cull Rate (%) (hatching eggs; July 2016): 1.88%; After Modification First Quality Chick (% Hatched) (hatching eggs; July 2016): 79.78%; After Modification Cull Rate (%) (hatching eggs; June 2016): 2.09%; After Modification First Quality Chick (% Hatched) (hatching eggs; June 2016): 78.62%; After Modification Cull Rate (%) (hatching eggs; November 2016): 1.41%; After Modification First Quality Chick (% Hatched) (hatching eggs; November 2016): 82.96%; After Modification Cull Rate (%) (hatching eggs; October 2016): 1.32%; After Modification First Quality Chick (% Hatched) (hatching eggs; October 2016): 82.55%; After Modification Cull Rate (%) (hatching eggs; September 2016): 1.63%; After Modification First Quality Chick (% Hatched) (hatching eggs; September 2016): 81.09%; percent hatching of first quality chicks (hatching eggs; after installation of DHP to the setter incubator environment (room about 0.5 ppm), FIG. 6): 83%; cull rate (hatching eggs; eggs incubated under DHP conditions, FIG. 7): continues to drop; additional birds available for shipping to the grow-out facility (hatching eggs; installation of DHP in the egg room): about 4,000 birds; % Reduction vs. Control (E. coli K12; 1 hour): 99.8%; Log10 reduction (E. coli K12; 1 hour): >4.78; Log10 reduction vs. Control (E. coli K12; 1 hour): 2.82; Percent reduction (E. coli K12; 1 hour): >99.9984%; % Reduction vs. Control (E. coli K12; 2 hours): 98.1%; Log10 reduction (E. coli K12; 2 hours): >4.79; Log10 reduction vs. Control (E. coli K12; 2 hours): 1.71; Percent reduction (E. coli K12; 2 hours): >99.9984%; aerosolized bacteria in the DHP treated space (E. coli K12; within one hour): essentially eliminated; % Reduction compared to Control [1, 4]: 95.150%; Average CFU/Carrier [1, 4]: 2.51E+05 CFU/Carrier; Log Reduction compared to Control [1, 4]: 1.31; Replicate CFU/Carrier [1, 4]: 1.62E+05 CFU/Carrier and 3.40E+05 CFU/Carrier; % Reduction compared to Control [1, 5]: 83.053%; Average CFU/Carrier [1, 5]: 8.77E+05 CFU/Carrier; Log Reduction compared to Control [1, 5]: 0.77; Replicate CFU/Carrier [1, 5]: 2.54E+05 CFU/Carrier and 1.50E+06 CFU/Carrier; % Reduction compared to Control [1, 6]: >66.667%; Average CFU/Carrier [1, 6]: <1.50E+01 CFU/Carrier; Log Reduction compared to Control [1, 6]: >0.48; Replicate CFU/Carrier [1, 6]: 2.50E+01 CFU/Carrier and <5.00E+00 CFU/Carrier; % Reduction compared to Control [1, 7]: >88.889%; Average CFU/Carrier [1, 7]: <5.00E+00 CFU/Carrier; Log Reduction compared to Control [1, 7]: >0.95; Replicate CFU/Carrier [1, 7]: 5.00E+00 CFU/Carrier and <5.00E+00 CFU/Carrier; % Reduction compared to Control [1, 8]: >78.947%; Average CFU/Carrier [1, 8]: <1.00E+01 CFU/Carrier; Log Reduction compared to Control [1, 8]: >0.68; % Reduction compared to Control [1, 9]: >89.474%; Average CFU/Carrier [1, 9]: <5.00E+00 CFU/Carrier; Log Reduction compared to Control [1, 9]: >0.98; Replicate CFU/Carrier [1, 9]: <5.00E+00 CFU/Carrier; growth of Salmonella on the XLT-4 (salmonellae): No growth; TSA growth (bacteria growing on TSA; egg cooler conditions, treatment, 0 to 120 hours): static until 120 hours; number of bacteria growing on TSA (bacteria growing on TSA; after 72 hours (P=0.05)): significantly reduced; number of bacteria growing on TSA (bacteria growing on TSA; after 120 hours (P=0.05)): significantly reduced; % Reduction (Influenza A (H1N1); [10]): 99.8%; Log10 reduction (Influenza A (H1N1); [10]): >=2.62; % Reduction (Influenza A (H1N1); [11]): 98.6%; Log10 reduction (Influenza A (H1N1); [11]): >=1.87; % Reduction (Influenza A (H1N1); [12]): 87%; Log10 reduction (Influenza A (H1N1); [12]): 0.87; % Reduction (Influenza A (H1N1); [13]): 76%; Log10 reduction (Influenza A (H1N1); [13]): 0.62; growth on Mac at 72 hours compared to 0 hours ([2]; treated group, FIG. 14): significantly less growth; Mac growth ([2]; treatment, 0 to 120 hours): low throughout; elimination of flies and other unwanted insects ([3]; egg room, DHP between 0.1 ppm and 0.2 ppm): sufficient to eliminate; elimination of flies and other unwanted insects, both flying and non-flying ([3]; incorporation of DHP into the egg room): eliminates; flying insects in the facility ([3]; within the first couple days of applying DHP to the poultry space): virtually eliminated; reduction of Salmonella on the egg surface (Salmonella): 83.3%
